{
  "source": "patent US20030040510A1",
  "about": "“Selective estrogen receptor modulators in combination with estrogens” (Endorecherche, Inc., priority 2000, published 2003)",
  "key": {"[1]": {"assay": "Concentration of EM-652 in the circulation, 6-month rat study", "type": "in vivo", "conditions": "intact rats, EM-652 0.5 mg/kg daily, 6-month study"}, "[2]": {"test_system": "uterus and vagina of ovariectomized nude mice", "assay": "Uterine, vaginal and body weight in the xenograft-bearing OVX nude mice (Example 1)", "conditions": "OVX + E1"}, "[3]": {"test_system": "bone metabolism in the rat", "assay": "Biochemical parameters of bone metabolism (urine, serum) after DHEA and/or EM-800", "type": "in vivo", "conditions": "DHEA 10 mg, EM-800 75 μg", "source_text": "Data are expressed as the means±SEM.**: P<0.01 experimental versus respective control.\nIt is particularly important to indicate that the combination of DHEA and EM-800 exerted unexpected beneficial effects on important biochemical parameters of bone metabolism. […] Moreover, no effect of DHEA could be detected on daily urinary calcium or phosphorus excretion (Luo et al., Endocrinology 138: 4435-4444, 1997). EM-800, decreased the urinary hydroxyproline/creatinine ratio by 48% while, similarly to DHEA, no effect of EM-800 was seen on urinary calcium or phosphorus excretion. EM-800, moreover, had no effect on serum alkaline phosphatase activity, a marker of bone formation while DHEA increased the value of the parameter by about 75% (Luo et al., Endocrinology 138: 4435-4444, 1997)."}, "[4]": {"test_system": "rat mammary gland and endometrium", "assay": "12-week EM-800 treatment of intact rats: serum 17β-estradiol, mammary gland, endometrium", "type": "in vivo", "conditions": "12 weeks", "description": "B. Animal treated with EM-800 (0.5 mg/kg, b w per day) for 12 weeks. […] Insert.\nB. Animal treated with EM-800 (0.5 mg/kg, b w per day) during 12 weeks."}, "[5]": {"test_system": "breast and endometrial tissues", "assay": "Antiestrogens tested for SERM function and estrogenic activity in breast and endometrium", "source_text": "As used herein, a selective estrogen receptor modulator (SERM) is a compound that either directly or through its active metabolite functions as an estrogen receptor antagonist (“antiestrogen”) in breast tissue, yet provides estrogenic or estrogen-like effect on bone tissue and on serum cholesterol levels (i.e. by reducing serum cholesterol). Non-steroidal compounds that function as estrogen receptor antagonists in vitro or in human or rat breast tissue (especially if the compound acts as an antiestrogen on human breast cancer cells) is likely to function as a SERM. Conversely, steroidal antiestrogens tend not to function as SERMs because they tend not to display any beneficial effect on serum cholesterol. […] These SERMs may be called “pure SERMs”. […] This second series of SERMs may be called “mixed SERMs”. The unwanted estrogenic activities of these “mixed SERMs”, may be inhibited by addition of pure “SERMs” as shown in FIGS. 6 and 7 in in vitro tests and in FIG. 9 in an in vivo test of breast cancer."}, "[6]": {"test_system": "bone metabolism in the rat", "conditions": "cited from earlier work"}, "ovariectomized rats": {"test_system": "ovariectomized rats", "assay": "5-diol alone or with Flutamide and/or EM-800 for 12 months in ovariectomized rats (bone mass, serum markers)"}, "[7]": {"test_system": "ZR-75-1 breast tumor xenografts", "assay": "Growth of human ZR-75-1 breast tumor xenografts in OVX nude mice supplemented with estrone (DHEA, EM-800; Example 1)", "conditions": "OVX + E1; for Inhibition of E1-stimulated ZR-75-1 tumor size / Average tumor weight: 9.5 months"}, "[8]": {"conditions": "EM-800 0.5 mg/kg per day, 0.5 mg/kg/day"}},
  "note": "Several values for one entry are separate records, joined by “and”; a condition that tells them apart may be missing. Equal values may be shown once. Entries after “also recorded” stand apart in the source; their conditions may differ. Marks after values point to notes of the source that are not given here.",
  "data": [
    {"smiles": "CC1=C(c2ccc(O)cc2)[C@H](c2ccc(OCCN3CCCCC3)cc2)Oc2cc(O)ccc21", "note": "[EM-652]", "values": [
      {"measurement": "concentration at 6 months", "setting": "[1]", "value": 0.4, "unit": "ng/mL"}
    ]},
    {"smiles": "CC1=C(c2ccc(OC(=O)C(C)(C)C)cc2)[C@H](c2ccc(OCCN3CCCCC3)cc2)Oc2cc(OC(=O)C(C)(C)C)ccc21", "note": "[EM-800, (+)-7-pivaloyloxy-3-(4′-pivaloyloxyphenyl)-4-methyl-2-(4″-(2′″-piperidinoethoxy)phenyl)-2H-benzopyran]", "values": [
      {"measurement": "Uterine weight", "setting": "[2]; EM-800 15 μg", "value": "49 ± 3", "unit": "mg"},
      {"measurement": "Vaginal weight", "setting": "[2]; EM-800 15 μg", "value": "23 ± 1", "unit": "mg"},
      {"measurement": "Uterine weight", "setting": "[2]; EM-800 50 μg", "value": "36 ± 2", "unit": "mg"},
      {"measurement": "Vaginal weight", "setting": "[2]; EM-800 50 μg", "value": "15 ± 1", "unit": "mg"},
      {"measurement": "Uterine weight", "setting": "[2]; EM-800 100 μg", "value": "32 ± 1", "unit": "mg"},
      {"measurement": "Vaginal weight", "setting": "[2]; EM-800 100 μg", "value": "11 ± 1", "unit": "mg"},
      {"measurement": "Serum tALP", "setting": "[3]", "value": "114.11 ± 11.26", "unit": "IU/L"},
      {"measurement": "Urine HP/Cr", "setting": "[3]", "value": "6.81 ± 0.84** μmol/mmol"},
      {"measurement": "Urine calcium", "setting": "[3]", "value": "17.44 ± 4.5", "unit": "μmol/24h/100g"},
      {"measurement": "Urine phosphorus", "setting": "[3]", "value": "102.03 ± 25.13", "unit": "μmol/24h/100g"},
      {"measurement": "Elevation of circulating 17β-estradiol vs intact animals", "setting": "[4]; EM-800 0.5 mg/kg orally daily", "value": 50, "unit": "%"},
      {"measurement": "Endometrium histology", "setting": "[4]; [8]", "value": "luminal epithelium is markedly reduced in height; also recorded: marked atrophy of the endometrium"},
      {"measurement": "Mammary gland histology", "setting": "[4]; [8]", "value": "lobules (L) are reduced in size; also recorded: marked atrophy of the mammary gland"},
      {"measurement": "Circulating levels of 17β-estradiol", "setting": "[4]; intact rats, EM-800 0.5 mg/kg orally daily", "value": "143.5 ± 7.8", "unit": "pg/mL"},
      {"measurement": "Function as SERM", "setting": "[5]", "value": "found to function as SERMs"},
      {"measurement": "Estrogenic activity in breast and endometrial tissues", "setting": "[5]; physiological or pharmacological concentrations", "value": "do not have any estrogenic activity"},
      {"measurement": "Decrease of urinary hydroxyproline/creatinine ratio", "setting": "[6]", "value": 48, "unit": "%"},
      {"measurement": "Effect on daily urinary calcium or phosphorus excretion", "setting": "[6]", "value": "no effect"},
      {"measurement": "Increase of serum alkaline phosphatase activity", "setting": "[6]", "value": "had no effect"},
      {"measurement": "Additional stimulation of femoral BMD compared to 5-diol alone", "setting": "ovariectomized rats; EM-800 100 μg s.c. daily added to 5-diol", "value": 28.4, "unit": "%"},
      {"measurement": "Effect on 5-diol action on bone volume, trabecular number and trabecular separation (histomorphometry)", "setting": "ovariectomized rats; added to 5-diol, proximal tibia", "value": "further enhanced"},
      {"measurement": "Decrease of serum cholesterol", "setting": "ovariectomized rats; addition of EM-800 to 5-diol", "value": 62, "unit": "%"},
      {"measurement": "Inhibition of E1-stimulated ZR-75-1 tumor size", "setting": "[7]; EM-800 15 μg oral daily", "value": "88% and 87.5%"},
      {"measurement": "Inhibition of E1-stimulated ZR-75-1 tumor size", "setting": "[7]; EM-800 50 μg oral daily", "value": "93% and 93.5%"},
      {"measurement": "Inhibition of E1-stimulated ZR-75-1 tumor size", "setting": "[7]; EM-800 100 μg oral daily", "value": 94, "unit": "%"},
      {"measurement": "Category of response: Partial", "setting": "[7]; EM-800 15 μg", "value": "1 (5.9) Number and (%)"},
      {"measurement": "Category of response: Stable", "setting": "[7]; EM-800 15 μg", "value": "5 (29.4) Number and (%)"},
      {"measurement": "Average tumor weight", "setting": "[7]; EM-800 15 μg", "value": "0.08 ± 0.03", "unit": "g"},
      {"measurement": "Category of response: Complete", "setting": "[7]; EM-800 50 μg", "value": "4 (25.0) Number and (%)"},
      {"measurement": "Category of response: Partial", "setting": "[7]; EM-800 50 μg", "value": "3 (18.8) Number and (%)"},
      {"measurement": "Category of response: Progression", "setting": "[7]; EM-800 50 μg", "value": "4 (25.0) Number and (%)"},
      {"measurement": "Category of response: Stable", "setting": "[7]; EM-800 50 μg", "value": "5 (31.2) Number and (%)"},
      {"measurement": "Average tumor weight", "setting": "[7]; EM-800 50 μg", "value": "0.03 ± 0.01", "unit": "g"},
      {"measurement": "Category of response: Complete", "setting": "[7]; EM-800 100 μg", "value": "8 (50.0) Number and (%)"},
      {"measurement": "Category of response: Partial", "setting": "[7]; EM-800 100 μg", "value": "0 (0) Number and (%)"},
      {"measurement": "Category of response: Progression", "setting": "[7]; EM-800 100 μg", "value": "5 (31.2) Number and (%)"},
      {"measurement": "Category of response: Stable", "setting": "[7]; EM-800 100 μg", "value": "3 (18.8) Number and (%)"},
      {"measurement": "Average tumor weight", "setting": "[7]; EM-800 100 μg", "value": "0.04 ± 0.03", "unit": "g"}
    ]}
  ]
}
